Values of other authors, collected in US20240398817A1, “CARDIO- AND RENOSAFE ANTIDIABETIC THERAPY” (priority 2018, published 2024).
Like-named read-outs stand apart in the source and are kept apart here.

Key:
Conditions in all cases: in vivo; cited from earlier work
[1] = test system: people with type 2 diabetes
[2] = test system: people with type 2 diabetes; remark: listed apart in the source
[3] = test system: people with type 2 diabetes; remark: listed apart in the source

Structure (SMILES): Cn1c(=O)cc(N2CCC[C@@H](N)C2)n(Cc2ccccc2C#N)c1=O [alogliptin]
- Incidence of hospitalization for heart failure versus placebo, in words [1]: numerically increased
- Major adverse CV events compared with placebo, in words [1]: neutral effects

Structure (SMILES): N#C[C@@H]1C[C@@H]2C[C@@H]2N1C(=O)[C@@H](N)C12CC3CC(CC(O)(C3)C1)C2 [saxagliptin]
- Major adverse CV events compared with placebo, in words [2]: neutral effects

Structure (SMILES): N[C@@H](CC(=O)N1CCn2c(nnc2C(F)(F)F)C1)Cc1cc(F)c(F)cc1F [sitagliptin]
- Incidence of heart failure hospitalization versus placebo, in words [3]: no effect
- Major adverse CV events compared with placebo, in words [3]: neutral effects
